# Data published in the supplement of paper PMC10307832.
# Experiments:
# Assay in all cases: relative viability (nuclei count vs DMSO), 5 days (fraction); higher = more cells survive
# [1] = system: NCI-H1650
# In short: (§1)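 Lung cancer cell lines in 1536-well plates got either a single drug or a fixed anchor-drug dose together with five library-drug doses (not always all listed) in √10 steps, by pin tool, on the day after seeding. Nuclei were counted after 5 days, and relative viability is the treated-to-vehicle ratio of nuclei counts. Values are medians of duplicate plates.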
# [2] = system: COR-L 105
# In short: as §1
# [3] = system: LU99A
# In short: as §1
# [4] = system: NCI-H838
# In short: as §1
# [5] = system: NCI-H2170
# In short: as §1
# [6] = system: PC-14
# In short: as §1
# [7] = system: HARA
# In short: as §1
# [8] = system: NCI-H1666
# In short: as §1
# [9] = system: EKVX
# In short: as §1
# [10] = system: LK-2
# In short: as §1
# [11] = system: CAL-12T
# In short: as §1
# [12] = system: NCI-H3122
# In short: as §1
# [13] = system: NCI-H441
# In short: as §1
# [14] = system: HCC-366
# In short: as §1
# [15] = system: BEN
# In short: as §1
# [16] = system: NCI-H2009
# In short: as §1
# [17] = system: NCI-H2023
# In short: as §1
# [18] = system: NCI-H1437
# In short: as §1
# [19] = system: NCI-H727
# In short: as §1
# [20] = system: NCI-H661
# In short: as §1
# [21] = system: 201T
# In short: as §1
# [22] = system: COR-L23
# In short: as §1
# [23] = system: SW 900
# In short: as §1
smiles,measurement,setting,value
Clc1ccc(Nc2nnc(Cc3ccncc3)c3ccccc23)cc1 [Vatalanib] + CC(=O)Nc1cccc(-n2c(=O)n(C3CC3)c(=O)c3c(Nc4ccc(I)cc4F)n(C)c(=O)c(C)c32)c1 [Trametinib] (partner 0.02 µM),relative viability,[1]; first compound 0.04 µM,0.598
same,relative viability,[1]; first compound 0.1265 µM,0.532
same,relative viability,[1]; first compound 0.4 µM,0.306
same,relative viability,[1]; first compound 1.265 µM,0.656
same,relative viability,[1]; first compound 4 µM,0.508
same,relative viability,[2]; first compound 0.04 µM,0.451
same,relative viability,[2]; first compound 0.1265 µM,0.363
same,relative viability,[2]; first compound 0.4 µM,0.427
same,relative viability,[2]; first compound 1.265 µM,0.443
same,relative viability,[2]; first compound 4 µM,0.426
same,relative viability,[3]; first compound 0.04 µM,0.563
same,relative viability,[3]; first compound 0.1265 µM,0.527
same,relative viability,[3]; first compound 0.4 µM,0.647
same,relative viability,[3]; first compound 1.265 µM,0.492
same,relative viability,[3]; first compound 4 µM,0.521
same,relative viability,[4]; first compound 0.04 µM,0.575
same,relative viability,[4]; first compound 0.1265 µM,0.539
same,relative viability,[4]; first compound 0.4 µM,0.657
same,relative viability,[4]; first compound 1.265 µM,0.462
same,relative viability,[4]; first compound 4 µM,0.509
same,relative viability,[5]; first compound 0.04 µM,0.926
same,relative viability,[5]; first compound 0.1265 µM,0.857
same,relative viability,[5]; first compound 0.4 µM,0.856
same,relative viability,[5]; first compound 1.265 µM,0.892
same,relative viability,[5]; first compound 4 µM,0.899
same,relative viability,[6]; first compound 0.04 µM,0.671
same,relative viability,[6]; first compound 0.1265 µM,0.826
same,relative viability,[6]; first compound 0.4 µM,0.991
same,relative viability,[6]; first compound 1.265 µM,0.738
same,relative viability,[6]; first compound 4 µM,0.6
same,relative viability,[7]; first compound 0.04 µM,0.687
same,relative viability,[7]; first compound 0.1265 µM,0.728
same,relative viability,[7]; first compound 0.4 µM,0.606
same,relative viability,[7]; first compound 1.265 µM,0.677
same,relative viability,[7]; first compound 4 µM,0.909
same,relative viability,[8]; first compound 0.04 µM,0.83
same,relative viability,[8]; first compound 0.1265 µM,0.886
same,relative viability,[8]; first compound 0.4 µM,0.88
same,relative viability,[8]; first compound 1.265 µM,0.912
same,relative viability,[8]; first compound 4 µM,0.782
same,relative viability,[9]; first compound 0.04 µM,0.274
same,relative viability,[9]; first compound 0.1265 µM,0.409
same,relative viability,[9]; first compound 0.4 µM,0.308
same,relative viability,[9]; first compound 1.265 µM,0.351
same,relative viability,[9]; first compound 4 µM,0.39
same,relative viability,[10]; first compound 0.04 µM,0.677
same,relative viability,[10]; first compound 0.1265 µM,0.682
same,relative viability,[10]; first compound 0.4 µM,0.774
same,relative viability,[10]; first compound 1.265 µM,0.876
same,relative viability,[10]; first compound 4 µM,0.667
same,relative viability,[11]; first compound 0.04 µM,0.366
same,relative viability,[11]; first compound 0.1265 µM,0.296
same,relative viability,[11]; first compound 0.4 µM,0.368
same,relative viability,[11]; first compound 1.265 µM,0.366
same,relative viability,[11]; first compound 4 µM,0.298
same,relative viability,[12]; first compound 0.04 µM,0.239
same,relative viability,[12]; first compound 0.1265 µM,0.229
same,relative viability,[12]; first compound 0.4 µM,0.238
same,relative viability,[12]; first compound 1.265 µM,0.244
same,relative viability,[12]; first compound 4 µM,0.212
same,relative viability,[13]; first compound 0.04 µM,0.435
same,relative viability,[13]; first compound 0.1265 µM,0.366
same,relative viability,[13]; first compound 0.4 µM,0.476
same,relative viability,[13]; first compound 1.265 µM,0.411
same,relative viability,[13]; first compound 4 µM,0.421
same,relative viability,[14]; first compound 0.04 µM,0.393
same,relative viability,[14]; first compound 0.1265 µM,0.294
same,relative viability,[14]; first compound 0.4 µM,0.372
same,relative viability,[14]; first compound 1.265 µM,0.306
same,relative viability,[14]; first compound 4 µM,0.299
same,relative viability,[15]; first compound 0.04 µM,1.12
same,relative viability,[15]; first compound 0.1265 µM,1.04
same,relative viability,[15]; first compound 0.4 µM,0.976
same,relative viability,[15]; first compound 1.265 µM,1.12
same,relative viability,[15]; first compound 4 µM,0.977
same,relative viability,[16]; first compound 0.04 µM,0.32
same,relative viability,[16]; first compound 0.1265 µM,0.251
same,relative viability,[16]; first compound 0.4 µM,0.325
same,relative viability,[16]; first compound 1.265 µM,0.307
same,relative viability,[16]; first compound 4 µM,0.263
same,relative viability,[17]; first compound 0.04 µM,0.5
same,relative viability,[17]; first compound 0.1265 µM,0.529
same,relative viability,[17]; first compound 0.4 µM,0.477
same,relative viability,[17]; first compound 1.265 µM,0.503
same,relative viability,[17]; first compound 4 µM,0.517
same,relative viability,[18]; first compound 0.04 µM,0.571
same,relative viability,[18]; first compound 0.1265 µM,0.499
same,relative viability,[18]; first compound 0.4 µM,0.554
same,relative viability,[18]; first compound 1.265 µM,0.451
same,relative viability,[18]; first compound 4 µM,0.486
same,relative viability,[19]; first compound 0.1265 µM,0.413
same,relative viability,[19]; first compound 0.4 µM,0.377
same,relative viability,[19]; first compound 1.265 µM,0.37
same,relative viability,[19]; first compound 4 µM,0.394
same,relative viability,[20]; first compound 0.04 µM,0.636
same,relative viability,[20]; first compound 0.1265 µM,0.533
same,relative viability,[20]; first compound 0.4 µM,0.689
same,relative viability,[20]; first compound 1.265 µM,0.59
same,relative viability,[20]; first compound 4 µM,0.574
same,relative viability,[21]; first compound 0.04 µM,0.718
same,relative viability,[21]; first compound 0.1265 µM,0.743
same,relative viability,[21]; first compound 0.4 µM,0.75
same,relative viability,[21]; first compound 1.265 µM,0.731
same,relative viability,[21]; first compound 4 µM,0.735
same,relative viability,[22]; first compound 0.04 µM,0.606
same,relative viability,[22]; first compound 0.1265 µM,0.587
same,relative viability,[22]; first compound 0.4 µM,0.721
same,relative viability,[22]; first compound 1.265 µM,0.578
same,relative viability,[22]; first compound 4 µM,0.534
same,relative viability,[23]; first compound 0.04 µM,0.768
same,relative viability,[23]; first compound 0.1265 µM,0.696
same,relative viability,[23]; first compound 0.4 µM,0.558
same,relative viability,[23]; first compound 1.265 µM,0.877
same,relative viability,[23]; first compound 4 µM,0.714
